melting point [°C] | Structure (SMILES)
285 | Nc1ccc(-c2noc(-c3cnn4c(C(F)F)cc(-c5ccc(C(F)(F)F)c(OCC(F)(F)F)c5)nc34)n2)cn1 [Example 71, 5-(5-{7-Difluoromethyl-5-[3-(2,2,2-trifluoro-ethoxy)-4-trifluoromethyl-phenyl]-pyrazolo[1,5-a]pyrimidin-3-yl}-[1,2,4]oxadiazol-3-yl)-pyridin-2-ylamine]
252 | Nc1ccc(-c2noc(-c3cnn4c(C(F)F)cc(-c5ccc(C(F)(F)F)c(Cl)c5)nc34)n2)cn1 [Example 72, 5-{5-[5-(3-Chloro-4-trifluoromethyl-phenyl)-7-difluoromethyl-pyrazolo[1,5-a]pyrimidin-3-yl]-[1,2,4]oxadiazol-3-yl}-pyridin-2-ylamine]
234 | Nc1ccc(-c2noc(-c3cnn4c(C(F)(F)F)cc(-c5ccc(C(F)(F)F)c(Cl)c5)nc34)n2)cn1 [Example 73, 5-{5-[5-(3-Chloro-4-trifluoromethyl-phenyl)-7-trifluoromethyl-pyrazolo[1,5-a]pyrimidin-3-yl]-[1,2,4]oxadiazol-3-yl}-pyridin-2-ylamine]
242 | Nc1ccc(-c2noc(-c3cnn4c(C(F)F)cc(-c5ccc(C(F)(F)F)c(F)c5)nc34)n2)cn1 [Example 74, 5-{5-[7-Difluoromethyl-5-(3-fluoro-4-trifluoromethyl-phenyl)-pyrazolo[1,5-a]pyrimidin-3-yl]-[1,2,4]oxadiazol-3-yl}-pyridin-2-ylamine]
233 | Nc1ccc(-c2noc(-c3cnn4c(C(F)(F)F)cc(-c5ccc(C(F)(F)F)c(F)c5)nc34)n2)cn1 [Example 75, 5-{5-[5-(3-Fluoro-4-trifluoromethyl-phenyl)-7-trifluoromethyl-pyrazolo[1,5-a]pyrimidin-3-yl]-[1,2,4]oxadiazol-3-yl}-pyridin-2-ylamine]
262 | Nc1ccc(-c2noc(-c3cnn4c(C(F)(F)F)cc(-c5ccc(F)c(F)c5)nc34)n2)cn1 [Example 76, 5-{5-[5-(3,4-Difluoro-phenyl)-7-trifluoromethyl-pyrazolo[1,5-a]pyrimidin-3-yl]-[1,2,4]oxadiazol-3-yl}-pyridin-2-ylamine]
268 | Nc1ncc(-c2noc(-c3cnn4c(C(F)(F)F)cc(-c5ccc(F)c(F)c5)nc34)n2)cn1 [Example 78, 5-{5-[5-(3,4-Difluoro-phenyl)-7-trifluoromethyl-pyrazolo[1,5-a]pyrimidin-3-yl]-[1,2,4]oxadiazol-3-yl}-pyrimidin-2-ylamine]
270 | Nc1ncc(-c2noc(-c3cnn4c(C(F)(F)F)cc(-c5ccc(C(F)(F)F)c(F)c5)nc34)n2)cn1 [Example 79, 5-{5-[5-(3-Fluoro-4-trifluoromethyl-phenyl)-7-trifluoromethyl-pyrazolo[1,5-a]pyrimidin-3-yl]-[1,2,4]oxadiazol-3-yl}-pyrimidin-2-ylamine]
279 | Nc1ncc(-c2noc(-c3cnn4c(C(F)(F)F)cc(-c5ccc(C(F)(F)F)c(Cl)c5)nc34)n2)cn1 [Example 80, 5-{5-[5-(3-Chloro-4-trifluoromethyl-phenyl)-7-trifluoromethyl-pyrazolo[1,5-a]pyrimidin-3-yl]-[1,2,4]oxadiazol-3-yl}-pyrimidin-2-ylamine]
300 | Nc1ncc(-c2noc(-c3cnn4c(C(F)(F)F)cc(-c5ccc(Cl)c(Cl)c5)nc34)n2)cn1 [Example 81, 5-{5-[5-(3,4-Dichloro-phenyl)-7-trifluoromethyl-pyrazolo[1,5-a]pyrimidin-3-yl]-[1,2,4]oxadiazol-3-yl}-pyrimidin-2-ylamine]
268 | Nc1ncc(-c2noc(-c3cnn4c(C(F)(F)F)cc(-c5ccc(Cl)cc5)nc34)n2)cn1 [Example 82, 5-{5-[5-(4-Chloro-phenyl)-7-trifluoromethyl-pyrazolo[1,5-a]pyrimidin-3-yl]-[1,2,4]oxadiazol-3-yl}-pyrimidin-2-ylamine]
272 | Cc1cc(-c2cc(C(F)(F)F)n3ncc(-c4nc(-c5cnc(N)nc5)no4)c3n2)ccc1C(F)(F)F [Example 83, 5-{5-[5-(3-Methyl-4-trifluoromethyl-phenyl)-7-trifluoromethyl-pyrazolo[1,5-a]pyrimidin-3-yl]-[1,2,4]oxadiazol-3-yl}-pyrimidin-2-ylamine]
272 | Cc1cc(-c2cc(C(F)(F)F)n3ncc(-c4nc(-c5cnc(N)nc5)no4)c3n2)ccc1Cl [Example 84, 5-{5-[5-(4-Chloro-3-methyl-phenyl)-7-trifluoromethyl-pyrazolo[1,5-a]pyrimidin-3-yl]-[1,2,4]oxadiazol-3-yl}-pyrimidin-2-ylamine]
252 | Nc1cc(-c2noc(-c3cnn4c(C(F)(F)F)cc(-c5ccc(Cl)cc5)nc34)n2)ccn1 [Example 85, 4-{5-[5-(4-Chloro-phenyl)-7-trifluoromethyl-pyrazolo[1,5-a]pyrimidin-3-yl]-[1,2,4]oxadiazol-3-yl}-pyridin-2-ylamine]
262 | Nc1cc(-c2noc(-c3cnn4c(C(F)(F)F)cc(-c5ccc(Cl)c(Cl)c5)nc34)n2)ccn1 [Example 86, 4-{5-[5-(3,4-Dichloro-phenyl)-7-trifluoromethyl-pyrazolo[1,5-a]pyrimidin-3-yl]-[1,2,4]oxadiazol-3-yl}-pyridin-2-ylamine]
245 | Cc1cc(-c2cc(C(F)(F)F)n3ncc(-c4nc(-c5ccnc(N)c5)no4)c3n2)ccc1C(F)(F)F [Example 87, 4-{5-[5-(3-Methyl-4-trifluoromethyl-phenyl)-7-trifluoromethyl-pyrazolo[1,5-a]pyrimidin-3-yl]-[1,2,4]oxadiazol-3-yl}-pyridine-2-ylamine]

— patent US8349844B2, “Substituted pyrazolo [1,5-A] pyrimidines as metabotropic glutamate antagonists” (Hoffmann-La Roche Inc., priority 2005, dated 2013)
